Patent US20160097044A1, “Antimicrobial Enzyme Fusions Reduce Resistance and Kill Intracellular Staphylococcus aureus” (The United States of America, as Represented by the …, priority 2014, published 2016)

Experiments:
[1] = system: S. aureus strain ALR; test: Rat nasal colonization model; format: in vivo, Wistar rats
Source text: FIGS. 1a-1c depict peptidoglycan hydrolase construct schematics, resistance development and effectiveness in eradicating S. aureus carriage in a rat colonization model. FIG. 1a is a schematic of the peptidoglycan hydrolase constructs. Domains: CHAP endopeptidase (CHAP, red box); N-acetylmuramoyl-L-alanine amidase (AMID, green box); M23 endopeptidase (PEP, blue oval); CBDs (LysK SH3b, gold diamond; lysostaphin SH3b, gold diamond with dot); protein transduction domain (PTD, blue circle); hexahistidine purification tag (His6). Domains are not to scale. Specific peptidoglycan cut sites are illustrated in FIG. 3a. FIG. 1b depicts in vitro antimicrobial resistance development. Engineered triple fusions K-L and L-K suppress antimicrobial resistance development compared to LysK (K), lysostaphin (L), or a combination of equimolar concentrations of both (L+K). Changes in Minimum Inhibitory Concentrations (MIC) are depicted as a fold-change at the tenth round of sublethal exposure compared to the first exposure, with the average fold-change of 4 replicates in red. Error bars=SEM. First exposure MICs: Lysostaphin, 0.77 μg/ml (27 nM); LysK, 47 μg/ml (840 nM); Lysostaphin and LysK (L+K) in combination 0.2 μg/ml (7 nM and 3 nM, respectively); triple fusion K-L, 7 μg/ml (97 nM); triple fusion L-K, 7.8 μg/ml (107 nM). FIG. 1c depicts reduction in colonization in a rat nasal carriage model. Rats were inoculated with S. aureus strain ALR on Day 1. After 5 days, the rats were treated twice daily for 3 days with 20 μl of a 10 mg/ml solution of each enzyme. The rat noses were excised on day 10, homogenized, and quantitative cultures were performed. Each point represents the CFU recovered from an individual rat. Bars indicate the median CFU/nose recovered from treated rats. […] Data were compiled from five independent experiments. Lyso=commercially purchased lysostaphin (AMBI, Tarrytown, N.Y.). Statistical comparisons were made with the Mann-Whitney test. SEQ ID NOs of depicted peptidoglycan hydrolase constructs: Lysostaphin (SEQ ID NO:1); Lysostaphin-PTD1-4, 6-12 (SEQ ID NOs:9, 11, 13, 15, 17, 19, 21, 23, 25, 27, 29, respectively); LysK (SEQ ID NO:3); LysK-PTD1-11 (SEQ ID NOs: 31, 33, 35, 37, 39, 41, 43, 45, 47, 49, 51, respectively); LysK-Lysostaphin Fusion K-L (SEQ ID NO:5); K-L-PTD1-4, 6-11 (SEQ ID NOs:53, 55, 57, 59, 61, 63, 65, 67, 69, 71, respectively); Lysostaphin-LysK Fusion L-K (SEQ ID NO:7).
Reduction in nasal colonization was observed when rats were challenged on day 0 with 10^7 CFU S. aureus strain ALR and then treated twice per day on days 5, 6, and 7 with 10 μl of 2% mupirocin calcium ointment (Bactroban Nasal) or petrolatum/softisan placebo. Noses from rats were homogenized and cultured quantitatively on day 10. Each point represents the CFU recovered from an individual rat, and the data were compiled from two independent experiments. Data were analyzed by the Mann-Whitney test, and horizontal lines represent median values. Mupirocin reduced colonization ˜98% compared to the placebo control.
The rat nasal colonization model is an adaptation of the mouse nasal colonization model that we described previously (Schaffer et al. 2006. Infect. Immun. 74:2145-2153). All animal experiments were conducted in accordance with a protocol approved by the appropriate Institutional Animal Care and Use Committees. Wistar rats (5 to 6 wks of age) were obtained from Charles River Laboratories (Wilmington, Mass.) and given food and water ad libitum. The animals were housed two per cage in a modified barrier facility under viral antibody-free conditions. The rats were given drinking water containing streptomycin sulfate (0.5 g/liter; Sigma) 1 day prior to bacterial inoculation and for the course of the experiment. The drinking water and cages were changed three times per week. […]

[2] = system: S. aureus Newbould 305; test: Turbidity reduction assay; format: cell-based; settings: 1 μM enzyme, cells at OD600nm 1.0, FIG. 6a
Experimental: (§1) FIG. 6a depicts the specific activity of peptidoglycan hydrolase fusion constructs in vitro in a turbidity reduction assay with S. aureus Newbould 305 resuspended in lysis buffer to an OD600nm of 1.0 and treated with 1 μM final concentrations of each peptidoglycan hydrolase. The maximum specific activity for three experiments are represented as an average with SEM error bars. FIG. 6b depicts the bacterial burden in mice with mastitis treated with recombinant peptidoglycan hydrolases. Colony Forming Units (CFUs) from infected murine mammary glands following a single treatment with 50 μl of 25 μM peptidoglycan hydrolase (1.25 nmol). Each data point represents the average of duplicate bacterial platings. The horizontal bars represent the average CFU/mg for each group. FIG. 6c illustrates the TNFα response in mice with mastitis that were treated with peptidoglycan hydrolases. Data represents a minimum of 7 measurements in duplicate. Log TNFα was used for statistical analysis. Single asterisks indicate a significant difference from buffer control (p<0.05); double asterisks indicate a significant difference from the parental enzyme (p<0.05).
FIG. 7 depicts a turbidity reduction assay of select peptidoglycan hydrolases against S. aureus Newbould 305. Bacterial cells were resuspended in lysis buffer to an OD600nm of 1.0 and lysed with 1 μM final concentrations of each peptidoglycan hydrolase. The maximum rate of ΔOD of three experiments are represented as an average with error bars representing SEM. Double asterisks indicate significant difference from parental. Mean comparisons were performed with one way ANOVA (P=3.3×10^−5) with t test post hoc analysis with Sidák adjusted alpha (p<0.01).

[3] = system: S. aureus Newbould 305; test: Murine model of mastitis, bacterial load; format: in vivo, C57BL6/SJL mice; settings: single 1.25 nmoles intramammary infusion 30 minutes post infection, 18 h
Experimental: as §1
To evaluate the efficacy of purified, individually administered peptidoglycan hydrolases in a murine model of bovine mastitis, female C57BL6/SJL mice were challenged by the intramammary route with 100 CFU S. aureus Newbould 305 in 50 μl buffer. A single 1.25 nmoles intramammary infusion of each desired peptidoglycan hydrolase (50 μl of a 25 μM solution) or 50 μl PBS was given 30 minutes post infection [with up to six glands treated per animal, each gland receiving a unique treatment] as described earlier (Schmelcher et al. 2012. Appl. Environ. Microbiol. 78:2297-2305; Kerr et al. 2001. Nat. Biotechnol. 19:66-70). Dams were euthanized 18 h post infusion, the mammary glands were aseptically dissected, and portions of the gland were used for determination of bacterial load and TNFα concentrations, as described previously (Schmelcher et al., supra).
Statistical analysis: The variables were analyzed as two-factor mixed models with Treatment as the factor and Mouse as random Blocks. This model […] within mouse correlations. Log(TNFα) was used. The variance grouping technique was used for log CFU and log TNFα to correct for variance heterogeneity. Means comparisons were done with Sidak adjusted p-values so that the experiment-wise error was 0.05. Log(TNFα) is back-transformed to the original units for graphing.

[4] = system: intracellular S. aureus strain ISP479C in human brain microvascular endothelial cells (hBMEC); test: Intracellular S. aureus eradication assay in hBMEC; format: cell-based; settings: 5 μg/ml, 1 h
Source text: FIGS. 5a-5e depict peptidoglycan hydrolase-protein transduction domain (PGH-PTD) eradication of intracellular S. aureus in cultured cells. Cultured cells were infected, treated with gentamicin to kill extracellular S. aureus, and then treated with the peptidoglycan hydrolases indicated. All results are standardized to the gentamicin (GENT) only control. Nomenclature of the peptidoglycan hydrolase constructs is as in FIG. 1. Asterisks indicate statistical significance detected with single factor ANOVA (α=0.05) with paired t-test posthoc analyses α=0.05 adjusted with Sidák correction for multiple comparisons (for all cases p<0.01). […] Error bars represent SEM. […] Yellow staining in the combined panel represents intracellular co-localization (in a single plane as determined by z-stack analysis) of both S. aureus and K-L-PTD1 (blue arrow). […]
Three similar intracellular S. aureus eradication assays from three different labs were optimized for (A) a cultured bovine mammary epithelial cell line (MAC-T, Nexia Biotechnologies, Quebec, Canada; Almeida, supra), (B) primary C57BL/6 mouse-derived osteoblasts (mOBs) (McCall et al. 2008. J. Bone Miner. Res. 23: 30-40) or (C) human brain microvascular endothelial cells (hBMEC; Stins, supra). […] The cell lysate was subjected to serial dilution plating, and the resultant CFUs were counted and normalized to the gentamicin control for each assay. […]

[5] = system: S. aureus strain Newman; format: cell-based; settings: tenth round compared to first exposure
Experimental: For the MIC repeated exposure method, MIC determinations were performed with S. aureus strain Newman. 100 μl of S. aureus strain Newman culture that survived at ½ the MIC (the first well with visible growth) for each round was inoculated into 5 ml TSB and cultivated to mid-log phase growth. This culture was used as the inoculum for the next round of MIC exposure (overnight growth), and the cycle was repeated for 10 rounds.
Development of resistance to the triple-acting fusion enzymes was tested on S. aureus strain Newman and compared to both parental enzymes applied individually or simultaneously. […] Survivors of the ten round exposure to peptidoglycan hydrolase were passaged five times in medium with no peptidoglycan hydrolase added. […] We compared our triple-acting fusions to small molecule antibiotics in similar assays.

With `C/C(=C\C(=O)OCCCCCCCCC(=O)O)C[C@@H]1OC[C@H](C[C@@H]2O[C@H]2[C@@H](C)[C@H](C)O)[C@@H](O)[C@H]1O` [Mupirocin, mupirocin, reference compound] the “reduction in nasal colonization compared to placebo control” value ([1]; 10 μl of 2% mupirocin calcium ointment twice per day on days 5, 6, 7, separate experiment) was 98%.
For “L-PTD9: lysostaphin with PTD 9 (TAT 48-60); SEQ ID NO:23”, the “turbidity reduction (in vitro lytic) activity” value [2] was “virtually inactive”, the “turbidity reduction (in vitro lytic) activity” value ([2]; listed as 1-PTD9) was “reduced the in vitro activity” and the “bacterial load / clearance of mammary glands (in words)” value [3] was “capable of reducing bacterial load within the mouse mammary glands relative to the PBS buffer control”.
In the case of “1-PTD12: lysostaphin with PTD 12 (TAT 49-57); SEQ ID NO:29”, the “intracellular S. aureus CFUs relative to gentamicin only control” value [4] is reported as “reduce the intracellular S. aureus strain ISP479C”.
With `[H]/N=C(/N)N[C@H]1[C@H](O)[C@@H](O)[C@H](O[C@@H]2O[C@@H](C)[C@](O)(C=O)[C@H]2O[C@@H]2O[C@@H](CO)[C@H](O)[C@@H](O)[C@@H]2NC)[C@@H](N/C(N)=N\[H])[C@@H]1O` [streptomycin, reference compound] the “increase in MIC after 10 rounds of sub-lethal exposure” value [5] was 13 fold.
In the case of “Trimethoprim/sulfamethoxazole [reference compound]”, the “increase in MIC after 10 rounds of sub-lethal exposure” value [5] is reported as 6 fold.
With “lysostaphin (AMBI, Tarrytown, N.Y.): commercially purchased lysostaphin (AMBI, Tarrytown, N.Y.)” the “decrease in CFU/nose (nasal colonization) compared to rats treated with buffer” value ([1]; 200 μg intranasally twice a day on days 5, 6, 7, noses cultured day 10) was 87%.
